Laboratory results as given in paper PMC5413351, “Structural basis of protein translocation by the Vps4-Vta1 AAA ATPase” (eLife, 2017).
Where a SMILES comes first, the peptide text is derived from it.

Molecular target: T1, Vps4^101-437-Hcp1 (UniProt P52917+Q9I747)
T1 construct: 6xHis (TEV-cleavable) (N, cleaved yes); Pseudomonas aeruginosa Hcp1 fusion partner (candidate entry Q9I747, HCP1_PSEAE); made in house; host or cells: E. coli BL21(DE3)RIL
T1 sequence (P52917+Q9I747 with tags, fused parts or gaps): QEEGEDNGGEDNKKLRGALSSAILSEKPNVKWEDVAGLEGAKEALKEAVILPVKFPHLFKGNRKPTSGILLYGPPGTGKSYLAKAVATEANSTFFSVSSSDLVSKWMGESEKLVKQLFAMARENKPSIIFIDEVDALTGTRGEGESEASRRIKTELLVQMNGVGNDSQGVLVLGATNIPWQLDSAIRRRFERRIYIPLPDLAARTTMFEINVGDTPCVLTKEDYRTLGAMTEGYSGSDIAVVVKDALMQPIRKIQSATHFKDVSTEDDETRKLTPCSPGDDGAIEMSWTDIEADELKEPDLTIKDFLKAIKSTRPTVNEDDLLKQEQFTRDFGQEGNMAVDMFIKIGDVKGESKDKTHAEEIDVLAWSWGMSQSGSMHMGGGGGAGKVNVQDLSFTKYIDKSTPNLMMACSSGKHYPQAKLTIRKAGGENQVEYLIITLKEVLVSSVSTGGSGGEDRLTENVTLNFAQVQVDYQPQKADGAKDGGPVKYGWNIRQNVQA
T1 sequence (Q06263 280-330 partner limits assumed): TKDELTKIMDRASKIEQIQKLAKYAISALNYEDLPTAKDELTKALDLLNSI
Test: Fluorescence polarization binding of fluorescently labeled ESCRT-III peptide to Vps4^101-437-Hcp1
Set-up: species or system S. cerevisiae
Conditions: 2:1 Vta1^VSL:Vps4 subunits, 1 mM ADP·BeFx, 1 nM fluorescent peptide, 20 mM HEPES pH 7.4, 100 mM NaCl, 10 mM MgCl2, 1 mM DTT, room temperature; per Vps4 hexamer; global fit of four independent experiments
Description: Fluorescence polarization assay for ESCRT-III peptide binding
When equilibrium was reached, parallel and perpendicular fluorescence intensities were measured on a Biotek Synergy Neo HTS microplate reader using an excitation wavelength of 485 nm and an emission wavelength of 528 nm.

CC[C@H](C)[C@H](NC(=O)[C@H](CCC(=O)O)NC(=O)[C@H](CC(=O)O)NC(=O)[C@H](CC(C)C)NC(=O)[C@@H](NC(=O)[C@H](CCCCN)NC(=O)[C@H](CC(N)=O)NC(=O)[C@@H](NC(=O)[C@@H](NC(=O)[C@H](CCC(=O)O)NC(=O)[C@H](CC(=O)O)NC(=O)c1ccc2c(c1)C(=O)OC21c2ccc(O)cc2Oc2cc(O)ccc21)[C@@H](C)CC)C(C)C)C(C)C)C(=O)NCC(=O)N[C@H](C(=O)N[C@@H](CC(=O)O)C(=O)N[C@@H](CC(C)C)C(=O)N[C@@H](CC(N)=O)C(=O)N[C@@H](CO)C(=O)N[C@@H](CCC(N)=O)C(=O)N[C@@H](CC(C)C)C(=O)N[C@@H](CCC(N)=O)C(N)=O)C(C)C [Peptide ‘20’] (HELM PEPTIDE1{[O=C1OC2(c3ccc(O)cc3Oc3cc(O)ccc32)c2ccc(C(=O)[*:2])cc21].D.E.I.V.N.K.V.L.D.E.I.G.V.D.L.N.S.Q.L.Q.[am]}$$$$V2.0)
Kd: 0.178 µM
